Laboratory results taken from patent US11161830B2, “4-pyridone compound or salt thereof, and pharmaceutical composition and formulation including same” (priority 2017, dated 2021).
Values joined by “and” are separate entries in the source; they are usually repeats but may differ in a detail not shown here. Equal values may be shown once.

Assays:
HBV genotype C [1] = test: Test Example 3-2: in vivo efficacy study in PXB mouse (chimeric mouse with human hepatocytes), first and second study; parameters: species or system hepatitis B virus; details: second study, orally 3 mg/kg twice a day for 14 days from day 35, individual mice, 3 mg/kg
Description: An in vivo efficacy study with a PXB mouse (a chimeric mouse with human hepatocytes) was carried out in PhenixBio Co., Ltd. 19-Week-or-more-old male mice having body weights of 10.5 g or more after the elapse of 13 weeks or more from the infection with HBV genotype C were allocated into the respective groups and used. The studies were carried out twice, and a 21-day administration withdrawal period was provided between the first study and the second study.
The first administration day in the first study was taken as day 0, and the compound of Example 6-5 was orally administered at 1 mg/kg, 3 mg/kg, 10 mg/kg, and 30 mg/kg twice a day, or 0.5% methylcellulose (vehicle) was orally administered once a day for 14 days. Before administration on day 0, day 3, Day 7, and day 10, and on day 14, the blood was collected from the orbital venous plexus under anesthesia with isoflurane.
The first administration day in the second study was taken as day 35, and the compounds of Examples 19-2 and 20-2 were each orally administered at 3 mg/kg twice a day, or 0.5% methylcellulose (vehicle) was orally administered once a day for 14 days. Before administration on day 35, day 38, day 42, and day 45, the blood was collected from the orbital venous plexus under anesthesia with isoflurane. On day 49, the blood was collected from the heart under anesthesia with isoflurane.
(§1) The serum was separated from the collected blood and purified with a QIAamp (registered trademark) DNA Blood Mini Kit (manufactured by QIAGEN). The amount of HBV-DNA in the obtained solution was absolutely quantified by a real-time PCR method. In addition, the amount of HBsAg in the serum was absolutely quantified by chemiluminescent enzyme immunoassay using Lumipulse (registered trademark) HBsAg-HQ (manufactured by Fujirebio Inc.).

HBV genotype C [2] = test: Test Example 3-3: in vivo efficacy study in PXB mouse (chimeric mouse with human hepatocytes); parameters: species or system hepatitis B virus; details: individual mice
Description: An in vivo efficacy study with a PXB mouse (a chimeric mouse with human hepatocytes) was carried out in PhenixBio Co., Ltd. Male mice having body weights of 15 g or more after the elapse of 8 weeks from the infection with HBV genotype C were allocated into the respective groups and used.
The compounds of Example 20-2 was orally administered at 2 mg/kg, 6 mg/kg, and 20 mg/kg once a day, and at 1 mg/kg, 3 mg/kg, and 10 mg/kg twice a day, or 0.5% methylcellulose (vehicle) was orally administered once a day for 14 days. A first administration day was taken as day 0, and before administration on day 0, day 3, Day 7, and day 10, and on day 14, the blood was collected from the orbital venous plexus under anesthesia with isoflurane.
as §1, with “Lumnipulse” for “Lumipulse”

[3] = orally 1 mg/kg twice a day, Day 0 (before administration), 1 mg/kg
[4] = orally 1 mg/kg twice a day, Day 3, 1 mg/kg
[5] = orally 1 mg/kg twice a day, Day 7, 1 mg/kg
[6] = orally 1 mg/kg twice a day, Day 10, 1 mg/kg
[7] = orally 1 mg/kg twice a day, Day 14, 1 mg/kg
[8] = orally 2 mg/kg once a day, Day 0 (before administration), 2 mg/kg
[9] = orally 2 mg/kg once a day, Day 3, 2 mg/kg
[10] = orally 2 mg/kg once a day, Day 7, 2 mg/kg
[11] = orally 2 mg/kg once a day, Day 10, 2 mg/kg
[12] = orally 2 mg/kg once a day, Day 14, 2 mg/kg
[13] = orally 3 mg/kg twice a day, Day 0 (before administration), 3 mg/kg
[14] = orally 3 mg/kg twice a day, Day 3, 3 mg/kg
[15] = orally 3 mg/kg twice a day, Day 7, 3 mg/kg
[16] = orally 3 mg/kg twice a day, Day 10, 3 mg/kg
[17] = orally 3 mg/kg twice a day, Day 14, 3 mg/kg
[18] = orally 6 mg/kg once a day, Day 0 (before administration), 6 mg/kg
[19] = orally 6 mg/kg once a day, Day 3, 6 mg/kg
[20] = orally 6 mg/kg once a day, Day 7, 6 mg/kg
[21] = orally 6 mg/kg once a day, Day 10, 6 mg/kg
[22] = orally 6 mg/kg once a day, Day 14, 6 mg/kg
[23] = orally 10 mg/kg twice a day, Day 0 (before administration), 10 mg/kg
[24] = orally 10 mg/kg twice a day, Day 3, 10 mg/kg
[25] = orally 10 mg/kg twice a day, Day 7, 10 mg/kg
[26] = orally 10 mg/kg twice a day, Day 10, 10 mg/kg
[27] = orally 10 mg/kg twice a day, Day 14, 10 mg/kg
[28] = orally 20 mg/kg once a day, Day 0 (before administration), 20 mg/kg
[29] = orally 20 mg/kg once a day, Day 3, 20 mg/kg
[30] = orally 20 mg/kg once a day, Day 7, 20 mg/kg
[31] = orally 20 mg/kg once a day, Day 10, 20 mg/kg
[32] = orally 20 mg/kg once a day, Day 14, 20 mg/kg

## COC1CN(c2nc3ccc(-n4cc(C(=O)O)c(=O)cc4-c4ccc(N5CC[C@@H](OC)C5)c(F)c4)cc3s2)C1 [Example 20-2]
HBV genotype C [1]; Day 35 (before administration)
  HBV-DNA in blood: 8.2E+08 copies/mL and 8.3E+08 copies/mL
  HBsAg in serum: 2,556 IU/mL and 3,408 IU/mL
HBV genotype C [1]; Day 38
  HBV-DNA in blood: 4.6E+08 copies/mL and 4.0E+08 copies/mL
  HBsAg in serum: 948 IU/mL and 1,061 IU/mL
HBV genotype C [1]; Day 42
  HBV-DNA in blood: 2.6E+08 copies/mL and 5.0E+08 copies/mL
  HBsAg in serum: 832 IU/mL and 1,478 IU/mL
HBV genotype C [1]; Day 45
  HBV-DNA in blood: 3.5E+08 copies/mL and 3.1E+08 copies/mL
  HBsAg in serum: 859 IU/mL and 1,185 IU/mL
HBV genotype C [1]; Day 49
  HBV-DNA in blood: 2.3E+08 copies/mL and 2.7E+08 copies/mL
  HBsAg in serum: 1,444 IU/mL and 924 IU/mL
HBV genotype C [2]; [3]
  HBV-DNA in blood: 2.8E+08 copies/mL and 1.4E+08 copies/mL
  HBsAg in serum: 3,352 IU/mL and 2,640 IU/mL and 4,436 IU/mL
HBV genotype C [2]; [4]
  HBV-DNA in blood: 1.7E+08 copies/mL and 1.2E+08 copies/mL and 3.7E+08 copies/mL
  HBsAg in serum: 3,056 IU/mL and 2,193 IU/mL and 4,655 IU/mL
HBV genotype C [2]; [5]
  HBV-DNA in blood: 1.4E+08 copies/mL
  HBsAg in serum: 3,033 IU/mL and 1,691 IU/mL and 3,774 IU/mL
HBV genotype C [2]; [6]
  HBV-DNA in blood: 1.4E+08 copies/mL and 3.7E+08 copies/mL
  HBsAg in serum: 2,356 IU/mL and 1,694 IU/mL and 3,775 IU/mL
HBV genotype C [2]; [7]
  HBV-DNA in blood: 2.5E+08 copies/mL and 1.3E+08 copies/mL and 6.9E+08 copies/mL
  HBsAg in serum: 2,833 IU/mL and 2,077 IU/mL and 4,276 IU/mL
HBV genotype C [2]; [8]
  HBV-DNA in blood: 4.5E+08 copies/mL and 4.7E+08 copies/mL and 4.4E+08 copies/mL
  HBsAg in serum: 2,534 IU/mL and 2,701 IU/mL and 3,776 IU/mL
HBV genotype C [2]; [9]
  HBV-DNA in blood: 3.3E+08 copies/mL
  HBsAg in serum: 2,393 IU/mL and 1,918 IU/mL and 3,502 IU/mL
HBV genotype C [2]; [10]
  HBV-DNA in blood: 1.7E+08 copies/mL and 5.3E+08 copies/mL
  HBsAg in serum: 1,612 IU/mL and 2,211 IU/mL and 3,236 IU/mL
HBV genotype C [2]; [11]
  HBV-DNA in blood: 4.2E+08 copies/mL and 4.3E+08 copies/mL and 3.9E+08 copies/mL
  HBsAg in serum: 1,946 IU/mL and 1,609 IU/mL and 3,623 IU/mL
HBV genotype C [2]; [12]
  HBV-DNA in blood: 4.3E+08 copies/mL
  HBsAg in serum: 1,526 IU/mL and 2,321 IU/mL and 3,366 IU/mL
HBV genotype C [2]; [13]
  HBV-DNA in blood: 3.4E+08 copies/mL and 3.8E+08 copies/mL
  HBsAg in serum: 2,582 IU/mL and 2,395 IU/mL and 3,879 IU/mL
HBV genotype C [2]; [14]
  HBV-DNA in blood: 2.2E+08 copies/mL and 1.8E+08 copies/mL and 2.1E+08 copies/mL
  HBsAg in serum: 1,034 IU/mL and 1,048 IU/mL and 1,801 IU/mL
HBV genotype C [2]; [15]
  HBV-DNA in blood: 2.8E+08 copies/mL and 1.2E+08 copies/mL and 1.8E+08 copies/mL
  HBsAg in serum: 1,275 IU/mL and 785 IU/mL and 1,286 IU/mL
HBV genotype C [2]; [16]
  HBV-DNA in blood: 4.3E+08 copies/mL
  HBsAg in serum: 1,017 IU/mL and 900 IU/mL and 1,379 IU/mL
HBV genotype C [2]; [17]
  HBV-DNA in blood: 3.7E+08 copies/mL and 3.4E+08 copies/mL and 3.6E+08 copies/mL
  HBsAg in serum: 1,051 IU/mL and 910 IU/mL and 1,375 IU/mL
HBV genotype C [2]; [18]
  HBV-DNA in blood: 6.7E+08 copies/mL and 1.6E+08 copies/mL and 4.3E+08 copies/mL
  HBsAg in serum: 3,883 IU/mL and 1,905 IU/mL and 3,703 IU/mL
HBV genotype C [2]; [19]
  HBV-DNA in blood: 3.8E+08 copies/mL and 2.0E+08 copies/mL and 1.7E+08 copies/mL
  HBsAg in serum: 3,331 IU/mL and 1,529 IU/mL and 2,004 IU/mL
HBV genotype C [2]; [20]
  HBV-DNA in blood: 1.5E+08 copies/mL and 3.3E+08 copies/mL
  HBsAg in serum: 3,453 IU/mL and 1,321 IU/mL and 2,025 IU/mL
HBV genotype C [2]; [21]
  HBV-DNA in blood: 3.8E+08 copies/mL and 2.2E+08 copies/mL and 1.5E+08 copies/mL
  HBsAg in serum: 2,920 IU/mL and 1,342 IU/mL and 1,100 IU/mL
HBV genotype C [2]; [22]
  HBV-DNA in blood: 2.2E+08 copies/mL and 1.5E+08 copies/mL and 7.7E+08 copies/mL
  HBsAg in serum: 2,569 IU/mL and 1,312 IU/mL and 1,879 IU/mL
HBV genotype C [2]; [23]
  HBV-DNA in blood: 4.2E+08 copies/mL and 3.8E+08 copies/mL
  HBsAg in serum: 3,678 IU/mL and 2,545 IU/mL and 3,727 IU/mL
HBV genotype C [2]; [24]
  HBV-DNA in blood: 1.7E+08 copies/mL and 2.5E+08 copies/mL
  HBsAg in serum: 994 IU/mL and 735 IU/mL and 901 IU/mL
HBV genotype C [2]; [25]
  HBV-DNA in blood: 2.1E+08 copies/mL and 1.6E+08 copies/mL and 1.1E+08 copies/mL
  HBsAg in serum: 707 IU/mL and 547 IU/mL and 708 IU/mL
HBV genotype C [2]; [26]
  HBV-DNA in blood: 1.5E+08 copies/mL and 1.7E+08 copies/mL
  HBsAg in serum: 861 IU/mL and 593 IU/mL and 676 IU/mL
HBV genotype C [2]; [27]
  HBV-DNA in blood: 2.0E+08 copies/mL
  HBsAg in serum: 931 IU/mL and 620 IU/mL and 738 IU/mL
HBV genotype C [2]; [28]
  HBV-DNA in blood: 2.8E+08 copies/mL
  HBsAg in serum: 3,225 IU/mL and 3,886 IU/mL and 2,106 IU/mL
HBV genotype C [2]; [29]
  HBV-DNA in blood: 2.1E+08 copies/mL and 2.0E+08 copies/mL and 9.7E+07 copies/mL
  HBsAg in serum: 1,239 IU/mL and 1,019 IU/mL and 517 IU/mL
HBV genotype C [2]; [30]
  HBV-DNA in blood: 1.6E+08 copies/mL and 1.4E+08 copies/mL and 8.2E+07 copies/mL
  HBsAg in serum: 1,003 IU/mL and 877 IU/mL and 385 IU/mL
HBV genotype C [2]; [31]
  HBV-DNA in blood: 3.3E+08 copies/mL and 2.5E+08 copies/mL and 1.5E+08 copies/mL
  HBsAg in serum: 1,200 IU/mL and 1,104 IU/mL and 493 IU/mL
HBV genotype C [2]; [32]
  HBV-DNA in blood: 2.1E+08 copies/mL and 2.9E+08 copies/mL and 1.6E+08 copies/mL
  HBsAg in serum: 1,037 IU/mL and 1,159 IU/mL and 497 IU/mL
